In patent publication US6573286B1, “2-(2,6-disubstituted phenyl)-4-aryl-5-alkyl-1,3-oxazoline compounds” (Dow AgroSciences LLC, priority 2002, dated 2003):

Experiments:
Format in all cases: in vivo
[1] = tested on: beet armyworm (Spodoptera exigua); experiment: Insecticidal test for beet armyworm, treated lepidopteran diet; settings: Spodoptera exigua, 120 h, 2nd instar larvae on treated diet, 5 days, read-out: BAW: activity against beet armyworm (% Control rating)
Protocol: (§1) Insecticidal test for tobacco budworm (Heliothis virescens), beet armyworm (Spodoptera exigua), and cabbage looper (Trichoplusia ni). To prepare test solution, the test compound was formulated at 400 ppm in 7.5 mL of 2 acetone:1 tap water. 250 μL of the test solution was pipetted upon the surface of 8 mL of lepidopteran diet (modified Shorey) contained in each of five one-ounce plastic cups (one cup=1 replication). […] After air-drying, the treated leaf discs were placed individually into one-ounce plastic cups. Each dried, treated cotton cotyledon disc was infested with a 2nd instar tobacco budworm larva, and each cabbage leaf disc was infested with a 2nd instar cabbage looper larva. Cups containing the treated substrates and larvae were capped and then held in a growth chamber at 25° C., 50-55% RH, and 14 hr light:10 hr dark for 5 days.

[2] = tested on: tobacco budworm (Heliothis virescens); experiment: Insecticidal test for tobacco budworm, treated cotton cotyledon leaf disc; settings: Heliothis virescens, foliar, 120 h, 2nd instar larvae on dipped cotton cotyledon discs, 5 days, read-out: TBW: activity against tobacco budworm (% Control rating)
Protocol: as §1

[3] = tested on: cotton aphid (Aphis gossypii); experiment: Insecticidal test for cotton aphid, sprayed squash cotyledons; settings: 50 ppm spray, graded after 3 days
Protocol: Insecticidal test for cotton aphid (Aphis gossypii) To prepare spray solutions, 1 mg of each test compound was dissolved into 1 mL of a 90:10 acetone:ethanol solvent. This 1 mL of chemical solution was added to 19 mL of water containing 0.05% Tween 20 surfactant to produce a 50 ppm spray solution. Squash cotyledons were infested with cotton aphid (all life stages) 16-20 hours prior to application of spray solution. The solution was sprayed on both sides of each infested squash cotyledon (0.5 mL×2 each side) with a sweeping action until runoff. The plants were allowed to air dry and held for 3 days in a controlled room at 26° C. and 40% RH after which time the test was graded. Grading was by actual count using a dissecting microscope and comparison of test counts to the untreated check.

[4] = tested on: two-spotted spider mite (Tetranychus urticae); experiment: Insecticidal test for two-spotted spider mite, ovicide method; settings: Tetranychus urticae, foliar, 144 h, ovicide method on cotton leaf discs, 6 days, read-out: SM: activity against two-spotted spider mite (% Control rating)
Protocol: Insecticidal test for two-spotted spider mite (Tetranychus urticae) Ovicide Method: Ten adult female two-spotted spider mites were placed on eight 2.2 cm leaf discs of cotton leaf, allowed to oviposit over 24 hours, and thereafter removed. […] Discs were placed on an agar substrate and held at 24° C. and 90% RH for 6 days.

[5] = tested on: Sweetpotato Whitefly (Bemisia tabacia); experiment: Insecticidal test for Sweetpotato Whitefly, sprayed cotton plants; settings: Bemisia, 312 h, 200 ppm spray, large nymphs counted after 13 days, read-out: WF: activity against whitefly (% Control rating)
Protocol: Insecticidal test for Sweetpotato Whitefly (Bemisia tabacia) Four mg of each test compound were dissolved by adding 4 mL of a 90:10 acetone:ethanol solvent mixture to the vial containing the sample compound. This solution was added to 16 mL of water containing 0.05% Tween 20 surfactant to produce 20 mL of a 200 ppm spray solution. Five-week-old cotton plants reared in a greenhouse were stripped of all foliage except for the two uppermost true leaves that were greater than 5 cm in diameter. These plants were then placed into a laboratory colony of whiteflies for two days for oviposition by the colony females. All whiteflies were then removed from the test plants with pressurized air. The spray solution was then applied to the test plants with a hand-held syringe fitted with hollow cone nozzle. One mL spray solution was applied to each leaf top and bottom for a total of 4 mL per plant. Four replications of each test compound utilized a total of 16 mL spray solution. Plants were air dried and then placed in a holding chamber (28° C. and 60% RH) for 13 days. Compound efficacy was evaluated by counting, under an illuminated magnifying glass, the number of large nymphs (3rd-4th instar) per leaf. Percent control based on reduction of large nymphs of a test compound compared to solution-only (no test compound) sprayed plants is reported in Table 1-8.

[6] = tested on: cabbage looper (Trichoplusia ni); experiment: Insecticidal test for cabbage looper, treated cabbage leaf disc; settings: Trichoplusia ni, foliar, 120 h, 2nd instar larvae on dipped cabbage leaf discs, 5 days, read-out: CL: activity against cabbage looper (% Control rating)
Protocol: as §1

C[C@@H]1OC(c2c(F)cccc2F)=N[C@@H]1c1ccc(I)cc1 (racemic) [Compound 1, (4R,5S)- and (4S,5R)-4-(4-iodophenyl)-2-(2,6-difluorophenyl)-5-methyl-4,5-dihydro-1,3-oxazole]
pest or weed control at 400 ppm [1]: < 50% | pest or weed control at 400 ppm [2]: < 50% | CA: activity against cotton aphid (% Control rating) [3]: A (90-100) | pest or weed control at 2.5 ppm [4]: 90 to 100% | pest or weed control at 200 ppm [5]: 60 to 69% | pest or weed control at 400 ppm [6]: 60 to 69%
